Data set [1] has as its target T1, Recombinant porcine sEH (Sus scrofa, UniProt Q6Q2C2).
T1 construct: made in house
T1 sequence (Q6Q2C2 1-555): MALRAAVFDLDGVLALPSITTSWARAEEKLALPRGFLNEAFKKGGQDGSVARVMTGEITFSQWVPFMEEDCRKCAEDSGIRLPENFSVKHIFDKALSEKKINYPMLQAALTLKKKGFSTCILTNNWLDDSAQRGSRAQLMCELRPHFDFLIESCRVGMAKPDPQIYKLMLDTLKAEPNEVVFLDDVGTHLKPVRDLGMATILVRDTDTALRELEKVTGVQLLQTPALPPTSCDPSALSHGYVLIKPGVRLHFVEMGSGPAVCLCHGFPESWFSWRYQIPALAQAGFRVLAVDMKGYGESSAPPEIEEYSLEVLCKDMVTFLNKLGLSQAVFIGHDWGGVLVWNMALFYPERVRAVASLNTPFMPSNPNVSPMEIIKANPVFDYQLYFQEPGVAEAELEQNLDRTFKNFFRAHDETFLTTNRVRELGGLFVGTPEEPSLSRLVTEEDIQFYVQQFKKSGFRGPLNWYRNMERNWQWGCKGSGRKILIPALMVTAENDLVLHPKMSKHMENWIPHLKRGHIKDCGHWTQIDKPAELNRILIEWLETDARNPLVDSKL
Kind of data set: fluorescent activity assay (MNPC substrate), sEH inhibition potency. Type of data set: biochemical, pig.

Data set [2] is described as follows: liver microsomal assay (metabolic stability). Particulars: pig liver microsomes, NADPH generating system, 35 min. Type of data set: in vitro ADME, pig. As to the method:
To further characterize the inhibitors with regard to suitability for administration in pigs, a microsomal assay was used to determine metabolic stability ([Ackley et al., 2004]) for a subset of eight inhibitors chosen for their potency and availability. Microsomal preparations from pig liver were purchased from XenoTech (Kansas City, KS, US). Microsomes, buffer and NADPH generating system were combined, and then the inhibitor was added. The reaction was stopped after 35 min with ice cold acetonitrile containing internal standard (12-[[(cyclohexylamino)carbonyl]amino]-dodecanoic acid). The amount left of parent inhibitor was determined with LC-MS/MS.

Setting [3] is: 5 min preincubation 37 °C, MNPC 5 µM, read-out: Pig sEH IC50.

Read-outs that look alike come from different tables or passages of the source.

For `CC(C)C(=O)N1CCC(NC(=O)Nc2ccc(OC(F)(F)F)cc2)CC1` [Compound 2422], the IC50 in data set [1] (setting [3]) worked out at 38 nM.
On the same count and under the same terms, to `CC(C)C(=O)N1CCC(NC(=O)Nc2ccc(C(F)(F)F)cc2)CC1` [Compound 2389] belongs 70 nM.
Consider `CNc1nc(C)nc(N[C@H]2CCC[C@@H](C(=O)NCc3ccc(C#N)cc3C(F)(F)F)C2)n1` [Compound 2946], for which, in data set [1] (setting [3]), the concentration for half-maximal inhibition (IC50) is 48 nM. For the same compound, the “Liver microsomal stability: Amount remaining after 35 min (% of initial)” value in data set [2] is 66 ± 1 % of initial.
Consider `CC(=O)N1CCC(NC(=O)Nc2ccc(OC(F)(F)F)cc2)CC1` [Compound 1555], for which the IC50 in data set [1] came to 197 nM.
With `COC(=O)c1ccc(NC(=O)NC23CC4CC(CC(C4)C2)C3)cc1O` [Compound 1671], the IC50 in data set [1] (setting [3]) amounted to 5 nM.
The same measure, in the same setting: for `O=C(O)CCCCCCCCCCCNC(=O)Nc1ccc(OC(F)(F)F)cc1` [Compound 1663] the value was 40 nM; for `CCCC(=O)N1CCC(NC(=O)Nc2ccc(C(F)(F)F)cc2)CC1` [Compound 2413], 60 nM.
The same measure, in the same setting: to `O=C(Nc1cccc2ccccc12)NC1CCCCC1` [Compound 59] belongs 105 nM.
`CCC(C)C(=O)N1CCC(NC(=O)Nc2ccc(OC(F)(F)F)cc2)CC1` (centres unmarked) [Compound 2385]: in data set [1], the IC50 came out at 19 nM. The “Liver microsomal stability: Amount remaining after 35 min (% of initial)” value in data set [2] was 55 ± 3 % of initial.
With `CCC(C)C(=O)N1CCC(NC(=O)Nc2cc(C(F)(F)F)cc(C(F)(F)F)c2)CC1` (centres unmarked) [Compound 2421], the IC50 in data set [1] (setting [3]) is 107 nM.
Take `O=C(O)CCCCCCCCCCCNC(=O)NC12CC3CC(CC(C3)C1)C2` [Compound 700]: in data set [2], the “Liver microsomal stability: Amount remaining after 35 min (% of initial)” value was 1 ± 0.1 % of initial.
On to `O=C(Nc1ccc(OC(F)(F)F)cc1)N[C@H]1CC[C@H](Oc2ccc(C(=O)O)cc2)CC1` [Compound 1728], for which the IC50 in data set [1] (setting [3]) was found to be 34 nM. The “Liver microsomal stability: Amount remaining after 35 min (% of initial)” value in data set [2] is recorded as 78 ± 3 % of initial.
Consider `O=C(Nc1ccc(C(F)(F)F)cc1)NC1CCN(C(=O)CC(F)(F)F)CC1` [Compound 2714], for which the concentration for half-maximal inhibition (IC50) in data set [1] (setting [3]) was 44 nM.
The same measure, in the same setting: to `O=C(Nc1ccc(OC(F)(F)F)cc1)N[C@H]1CC[C@@H](Oc2ccc(C(=O)O)cc2)CC1` [Compound 1686] belongs 19 nM.
